# What was measured:
# Hb [1] = target: T1, Hb (Homo sapiens, UniProt P68871+P69905); experiment: Titration of normoxic Hb with NO, fitted UV-visible difference spectra; type: biochemical; set-up: purchased Apex Bioscience (Research Triangle Park, N.C.)
# Method: Air-oxygenated Hb was titrated with 0.22 μM NO. Samples were analyzed immediately after NO addition by UV-visible spectrophotometry. Time between additions varied from 3 to 5 minutes.
# The extinction coefficient spectra of metHb, deoxyhb, iron nitrosylHb and oxyHb were generated from pure solutions of each species. HbA was diluted into PBS (pH 7.4) to a known final heme concentration [as calculated by the pyridine-hemochromagen method (Antonini, E., et al., p. 13 in Frontiers in Biology, Neuberger, A. and Tatum, E. L. eds., North-Holland Publishing, Co., Amsterdam, London, 1971)]. MetHb was synthesized by adding excess K3FeCN6. DeoxyHb was measured after the addition of dithionite, and nitrosyl- and oxyHb were measured following saturation with each ligand.
# Difference spectra were obtained by subtracting the UV-visible spectrum of a given sample before the addition of NO from those after. The simple competition model discussed above, predicts that such difference spectra could be approximated by a linear combination of two standard difference spectra: an oxyHb minus metHb spectrum, which gauges the progress of the NO oxidation reaction, and a deoxyHb minus iron nitrosyHb, which gauges the NO addition reaction; the sum of the combining coefficients is fixed by the mass balance ([NO]0). Standard difference spectra were obtained from UV-visible spectra of authentic samples of metHb, oxyHb, nitrosylHb, and deoxyHb. We determined combining coefficients by a least-squares fitting procedure. Inasmuch as the deoxy- and/or oxyheme concentrations can decline during the competition, an additional component (deoxyHb minus oxyHb) could be expected.
# (A) Nitrosyl content of oxyHb (10 mM phosphate 100 μM DTPA, pH 7.4) after exposure to 1.2 μM NO, as measured by photolysis-chemiluminescence (Stamler, J. S., et al., Science, 276:2034-2037, 1997). Nitrosyl yield increases as a function of Hb concentration (P<0.05). Solid symbols, absolute yield of NO bound to Hb (FeNO plus SNO); open symbols, percentage of NO added. Data shown are the average of 7 to 19 experiments±SE. (B) Standard difference spectra of metHb (solid line), deoxyHb (dotted line), and iron nitrosylHb (dashed line) vs. oxyHb. (C) Difference spectra generated from the exposure of NO to normoxic (≈99% oxygen saturation) Hb. NO was added (in 10 aliquots totaling 2.2 μM) to 33 μM Hb in 100 mM phosphate (solid line) or 10 mM phosphate (dotted line) or 10 mM phosphate plus 0.05% borate (dashed line). […] Specifically, spectra in C were fitted, by a least-squares process, to either the simple competition model or the cooperativity model without a mass balance constraint. Cooperativity is present if add increases above that reported in the literature, as a function of oxygen tension.
# Hb [2] = target: T1, Hb; experiment: EPR of iron nitrosyl-Hb formed by limiting NO with variously oxygenated Hb; type: biochemical; set-up: purchased Apex Bioscience (Research Triangle Park, N.C.)
# From the text: To investigate the reaction of NO with oxyHb, we begin by adopting the conventional viewpoint that: NO consumption involves a competition between the oxidation reaction (Eq. 1) and the adduct-forming addition reaction (Eq. 2); and that the specific rate constants for these reactions, namely kox and kadd, are independent of the degree of oxygen saturation (Y) of the hemes.
# [Fe(II)NO]/[NO]0=1−Y/[1−Y+κY] [4]
# HbA0 was obtained from Apex Bioscience (Research Triangle Park, N.C.). Buffer exchange was achieved by dialysis. Deoxygenation was performed by gas exchange with argon in a tonometer. NO was added from a stock solution prepared under ultrapure helium and purified across alkali and cold traps. Stock solutions of NO were prepared in phosphate buffered saline containing 100 μM DTPA, pH 7.4. NO injections were made via a gas tight Hamilton syringe with Teflon seal. The concentration of NO in stock solutions was assayed by electrode and by a Sievers 280 NO analyzer (Boulder Colo.).
# EPR spectroscopy was carried out with samples in 4-mm i.d. fused silica tubes, at 76° K, on a Varian E-9 spectrometer. UV-visible spectra were taken after NO addition. The sample was then placed in a deoxygenated EPR tube and plunged into liquid N2. EPR spectra of nitrosylHb or dinitrosyl iron complexes (DNICs) were recorded in a single 4-min. scan over 400 G on a Varian E-9 spectrometer operating at 9.274 GHz, with 10-mW microwave power, 10-20 G amplitude of field modulation at 100 kHz, and time constant of 0.250 sec. Spectra of high-spin metHb were recorded with a scan of 1000 G, 20 G modulation amplitude, time constant of 0.128 sec, under otherwise identical conditions. NitrosylHb was measured by double integration of EPR spectra and by comparison to EPR spectra of Hb(NO)4 standardized with UV-visible spectroscopy. The reproducibility of nitrosylHb measurements was estimated to be ±6% by repeated trials.
# (A) EPR spectra of iron-nitrosyl Hb derivatives formed by incubation of 19 μM NO with 393 μM Hb at various degrees of oxygen saturation in 10 mM phosphate buffer, pH 7.4. […]
# myoglobin = details: cited from earlier work
smiles,measurement,setting,value
"[N]=O [NO, nitric oxide]",iron nitrosylHb in fitted difference spectrum,"Hb [1]; 2.2 μM NO, 33 μM Hb, 10 mM phosphate, ≈99% O2",54%
same,metHb in fitted difference spectrum,"Hb [1]; 2.2 μM NO, 33 μM Hb, 100 mM phosphate, ≈99% O2",95%
same,added NO accounted for by the spectra,Hb [1]; 10 mM (low) phosphate,50%
same,iron nitrosylHb in fitted difference spectrum,Hb [1]; 10 mM phosphate plus 0.05% borate,85%
same,added NO accounted for by the spectra,Hb [1]; low phosphate plus borate,80%
same,decrease of K over the 0 to 80% range of oxygen saturation,Hb [2]; 10 mM phosphate,7 fold
same,decrease of K by extrapolation,"Hb [2]; 10 mM phosphate, at 90% saturation",100 fold
same,K (κ = kox/kadd) from fit of Eq. 4,"Hb [2]; 100 mM phosphate, pH 7.4, average of the two curves",1.40±0.06
same,rate of NO binding to ferrous myoglobin,myoglobin,2.5e+07 M⁻¹ s⁻¹
same,rate of NO oxidation of oxymyoglobin,myoglobin,3.4×10^7 M^−1 sect^−1
